Experiment: molar heat capacity at constant pressure
Details: 101.33 kPa

CCC12CC3CC(CC(C3)C1)C2 [1-ethyladamantane]
Details | molar heat capacity at constant pressure [J/K/mol]
8.03 K, Crystal | 1.395
8.87 K, Crystal | 1.961
9.72 K, Crystal | 2.621
10.57 K, Crystal | 3.39
11.44 K, Crystal | 4.278
12.32 K, Crystal | 5.225
13.21 K, Crystal | 6.255
14.1 K, Crystal | 7.376
14.99 K, Crystal | 8.556
15.9 K, Crystal | 9.727
16.8 K, Crystal | 10.96
17.71 K, Crystal | 12.22
18.62 K, Crystal | 13.48
19.54 K, Crystal | 14.72
20.54 K, Crystal | 16.13
21.56 K, Crystal | 17.52
22.59 K, Crystal | 18.89
23.61 K, Crystal | 20.32
24.63 K, Crystal | 21.67
26.68 K, Crystal | 24.2
27.71 K, Crystal | 25.4
28.74 K, Crystal | 26.62
29.76 K, Crystal | 27.84
30.79 K, Crystal | 29.12
32.85 K, Crystal | 31.29
33.87 K, Crystal | 32.44
34.9 K, Crystal | 33.5
35.93 K, Crystal | 34.39
37.98 K, Crystal | 36.32
39.01 K, Crystal | 37.21
40.03 K, Crystal | 38.15
41.06 K, Crystal | 39
42.08 K, Crystal | 39.94
43.1 K, Crystal | 40.64
44.12 K, Crystal | 41.41
45.14 K, Crystal | 42.16
46.16 K, Crystal | 42.91
47.18 K, Crystal | 43.59
48.2 K, Crystal | 44.12
49.22 K, Crystal | 44.8
50.23 K, Crystal | 45.53
51.25 K, Crystal | 46
52.26 K, Crystal | 46.77
53.27 K, Crystal | 47.66
54.29 K, Crystal | 48.36
55.3 K, Crystal | 49.16
56.32 K, Crystal | 50.02
57.33 K, Crystal | 50.66
60.8 K, Crystal | 53.31
62.77 K, Crystal | 54.44
64.71 K, Crystal | 55.94
65.75 K, Crystal | 56.4
66.79 K, Crystal | 57.48
67.84 K, Crystal | 57.62
68.88 K, Crystal | 58.33
69.92 K, Crystal | 59.01
70.96 K, Crystal | 59.56
72 K, Crystal | 60.08
73.04 K, Crystal | 60.85
74.08 K, Crystal | 61.29
75.11 K, Crystal | 62.33
76.15 K, Crystal | 62.98
77.19 K, Crystal | 63.42
78.22 K, Crystal | 64.33
79.25 K, Crystal | 64.56
80.28 K, Crystal | 65.4
81.31 K, Crystal | 66.12
81.85 K, Crystal | 65.93
82.34 K, Crystal | 66.67
82.88 K, Crystal | 66.84
83.37 K, Crystal | 67.23
83.91 K, Crystal | 67.62
84.26 K, Crystal | 67.63
84.94 K, Crystal | 68.15
85.59 K, Crystal | 68.6
85.97 K, Crystal | 68.8
86.66 K, Crystal | 69.39
87 K, Crystal | 69.66
87.74 K, Crystal | 70.12
88.82 K, Crystal | 70.92
89.89 K, Crystal | 71.56
90.96 K, Crystal | 72.22
92.04 K, Crystal | 72.9
93.11 K, Crystal | 73.4
94.18 K, Crystal | 73.82
95.25 K, Crystal | 75.04
96.32 K, Crystal | 75.51
97.39 K, Crystal | 76.24
98.46 K, Crystal | 76.81
99.54 K, Crystal | 77.83
100.87 K, Crystal | 78.38
102.46 K, Crystal | 79.35
104.05 K, Crystal | 80.35
105.64 K, Crystal | 81.43
107.23 K, Crystal | 82.56
108.82 K, Crystal | 83.52
110.4 K, Crystal | 84.71
111.99 K, Crystal | 85.66
113.57 K, Crystal | 86.76
115.16 K, Crystal | 87.63
116.73 K, Crystal | 88.67
118.31 K, Crystal | 89.74
119.89 K, Crystal | 90.68
121.47 K, Crystal | 91.9
123.04 K, Crystal | 92.76
124.62 K, Crystal | 93.94
126.2 K, Crystal | 94.87
127.77 K, Crystal | 96.09
129.34 K, Crystal | 97.09
130.92 K, Crystal | 97.98
132.49 K, Crystal | 99.07
134.06 K, Crystal | 100.25
135.63 K, Crystal | 101.16
137.2 K, Crystal | 102.25
138.77 K, Crystal | 103.19
140.34 K, Crystal | 104.1
141.9 K, Crystal | 105.44
143.46 K, Crystal | 106.52
145.03 K, Crystal | 107.47
146.59 K, Crystal | 108.5
148.16 K, Crystal | 109.54
149.72 K, Crystal | 110.66
151.28 K, Crystal | 111.92
152.83 K, Crystal | 112.8
154.39 K, Crystal | 113.97
155.94 K, Crystal | 114.98
157.5 K, Crystal | 116.23
159.05 K, Crystal | 117.17
160.6 K, Crystal | 118.16
162.16 K, Crystal | 119.21
163.71 K, Crystal | 120.38
165.26 K, Crystal | 121.36
166.82 K, Crystal | 122.47
168.37 K, Crystal | 123.67
169.92 K, Crystal | 124.78
171.47 K, Crystal | 125.84
173.02 K, Crystal | 126.95
174.57 K, Crystal | 128.01
176.11 K, Crystal | 129.2
177.66 K, Crystal | 130.08
179.2 K, Crystal | 131.06
180.74 K, Crystal | 132.22
182.28 K, Crystal | 133.41
183.82 K, Crystal | 134.59
185.36 K, Crystal | 135.72
186.9 K, Crystal | 136.96
188.44 K, Crystal | 138.08
189.98 K, Crystal | 139.07
191.52 K, Crystal | 140.27
193.06 K, Crystal | 141.34
194.59 K, Crystal | 142.65
196.12 K, Crystal | 143.78
197.65 K, Crystal | 144.95
199.17 K, Crystal | 146.07
200.7 K, Crystal | 147.28
202.23 K, Crystal | 148.71
205.28 K, Crystal | 150.89
206.8 K, Crystal | 152.02
208.31 K, Crystal | 152.99
209.83 K, Crystal | 154.47
211.34 K, Crystal | 155.33
212.86 K, Crystal | 156.65
214.37 K, Crystal | 157.99
215.88 K, Crystal | 159.85
217.38 K, Crystal | 161.46
218.88 K, Crystal | 163.87
220.38 K, Crystal | 167.18
228.19 K, Liquid | 213.96
229.69 K, Liquid | 214.76
231.15 K, Liquid | 216.02
232.62 K, Liquid | 216.73
234.09 K, Liquid | 217.38
235.55 K, Liquid | 218.44
237.02 K, Liquid | 218.96
238.48 K, Liquid | 219.64
239.95 K, Liquid | 220.45
241.41 K, Liquid | 222.1
242.87 K, Liquid | 222.52
244.34 K, Liquid | 223.6
245.81 K, Liquid | 224.53
247.27 K, Liquid | 225.06
248.74 K, Liquid | 225.78
250.2 K, Liquid | 226.74
251.63 K, Liquid | 227.78
253.09 K, Liquid | 228.8
254.56 K, Liquid | 229.67
256.02 K, Liquid | 230.53
257.48 K, Liquid | 231.41
258.94 K, Liquid | 232.48
260.41 K, Liquid | 233.18
261.87 K, Liquid | 234.01
263.33 K, Liquid | 235.14
264.79 K, Liquid | 236.35
266.25 K, Liquid | 237.17
267.71 K, Liquid | 238.18
269.18 K, Liquid | 238.96
270.64 K, Liquid | 240.09
272.1 K, Liquid | 240.99
273.56 K, Liquid | 242.19
274.98 K, Liquid | 242.56
276.44 K, Liquid | 243.82
277.9 K, Liquid | 244.9
279.36 K, Liquid | 245.49
280.82 K, Liquid | 246.39
282.28 K, Liquid | 247.77
283.74 K, Liquid | 248.37
285.2 K, Liquid | 249.48
286.65 K, Liquid | 250.83
288.11 K, Liquid | 251.75
289.57 K, Liquid | 252.24
291.03 K, Liquid | 253.03
292.48 K, Liquid | 254.46
293.94 K, Liquid | 255.49
295.4 K, Liquid | 256.65
296.85 K, Liquid | 257.72
298.28 K, Liquid | 258.45
299.74 K, Liquid | 259.79
301.19 K, Liquid | 260.37
302.65 K, Liquid | 261.81
304.1 K, Liquid | 262.96
305.56 K, Liquid | 263.59
307.02 K, Liquid | 264.26
308.47 K, Liquid | 265.38
309.93 K, Liquid | 266.44
311.38 K, Liquid | 267.77
312.84 K, Liquid | 268.68
314.29 K, Liquid | 268.95
315.75 K, Liquid | 271
317.21 K, Liquid | 271.58
318.66 K, Liquid | 272.26
320.12 K, Liquid | 273.19
321.55 K, Liquid | 274.59
323 K, Liquid | 275.5
324.46 K, Liquid | 276.62
325.92 K, Liquid | 277.16
327.37 K, Liquid | 278.45
328.83 K, Liquid | 279.65
330.29 K, Liquid | 280.77
331.75 K, Liquid | 281.88
332.28 K, Liquid | 282.18
333.21 K, Liquid | 282.65
333.65 K, Liquid | 283.08
334.66 K, Liquid | 283.89
335.01 K, Liquid | 284.12
336.12 K, Liquid | 284.89
336.37 K, Liquid | 285.08
337.58 K, Liquid | 285.8
337.72 K, Liquid | 286.15
339.07 K, Liquid | 287.35
340.41 K, Liquid | 288.22
341.76 K, Liquid | 289.11
342.95 K, Liquid | 290.27
344.28 K, Liquid | 291.29
345.62 K, Liquid | 292.19
346.95 K, Liquid | 292.96
348.28 K, Liquid | 294.44
349.61 K, Liquid | 295.79
350.93 K, Liquid | 296.76
352.25 K, Liquid | 297.68
353.57 K, Liquid | 298.69
354.88 K, Liquid | 299.75
356.19 K, Liquid | 300.53
357.5 K, Liquid | 301.48
358.78 K, Liquid | 302.8
360.08 K, Liquid | 303.82
361.37 K, Liquid | 304.5
362.66 K, Liquid | 305.46
363.76 K, Liquid | 305.56
365.04 K, Liquid | 306.42
366.32 K, Liquid | 307.62
367.59 K, Liquid | 308.68
368.87 K, Liquid | 309.55
370.13 K, Liquid | 310.5
371.4 K, Liquid | 311.2
372.65 K, Liquid | 312.25
373.9 K, Liquid | 313.52

Reference: the NIST ThermoML archive (doi:10.1016/j.jct.2004.06.009)
